Reference: ChEMBL document CHEMBL4000248, “Synthesis and biological evaluation of cyclic imides incorporating benzenesulfonamide moieties as carbonic anhydrase I, II, IV and IX inhibitors” (Bioorg Med Chem, 2017)

Target: Carbonic anhydrase 9 (Homo sapiens, UniProt Q16790)
Assay: Inhibition of recombinant human carbonic anhydrase 9 incubated for 10 mins prior to testing by stopped flow CO2 hydrase assay

SMILES	Ki [nM]
NS(=O)(=O)c1ccc(CCN2C(=O)c3ccc([N+](=O)[O-])cc3C2=O)cc1	1640
Cc1ccc2c(c1)C(=O)N(CCc1ccc(S(N)(=O)=O)cc1)C2=O	390
NS(=O)(=O)c1ccc(CCN2C(=O)c3cccc([N+](=O)[O-])c3C2=O)cc1	2670
NS(=O)(=O)c1ccc(CCN2C(=O)c3ccccc3C2=O)cc1	296
NS(=O)(=O)c1ccc(CCN2C(=O)[C@H]3CC=CC[C@H]3C2=O)cc1	296
CC(C)(C)c1ccc2c(c1)C(=O)N(CCc1ccc(S(N)(=O)=O)cc1)C2=O	459
NS(=O)(=O)c1ccc(CCN2C(=O)c3c(Br)c(Br)c(Br)c(Br)c3C2=O)cc1	2390
NS(=O)(=O)c1ccc(CCN2C(=O)c3cc(Cl)c(Cl)cc3C2=O)cc1	428
NS(=O)(=O)c1ccc(CCN2C(=O)c3nccnc3C2=O)cc1	4190

More lines, in order of falling Ki, values ahead:

Ki [nM]	SMILES
296	NS(=O)(=O)c1ccc(CCN2C(=O)CCC2=O)cc1
274	NS(=O)(=O)c1ccc(CCN2C(=O)C=CC2=O)cc1
114	NS(=O)(=O)c1ccc(CCN2C(=O)C3C(C2=O)C2(Cl)C(Cl)=C(Cl)C3(Cl)C2(Cl)Cl)cc1 (centres undefined)
16.9	NS(=O)(=O)c1ccc(CN2C(=O)C3C(C2=O)C2(Cl)C(Cl)=C(Cl)C3(Cl)C2(Cl)Cl)cc1 (centres undefined)
13.7	NS(=O)(=O)c1ccc(N2C(=O)C3C(C2=O)C2(Cl)C(Cl)=C(Cl)C3(Cl)C2(Cl)Cl)cc1 (centres undefined)
